Data: ChEMBL document CHEMBL1212936, “Discovery of 2-[1-(4-chlorophenyl)cyclopropyl]-3-hydroxy-8-(trifluoromethyl)quinoline-4-carboxylic acid (PSI-421), a P-selectin inhibitor with improved pharmacokinetic properties and oral efficacy in models of vascular injury” (J Med Chem, 2010)
pIC50: −log10 of the molar value. In brackets after ≈: the same amount, converted by molar mass.

What was measured:
[1] = molecular target: T1, P-selectin glycoprotein ligand 1 (Homo sapiens) (UniProt Q14242); test: Inhibition of recombinant PSGL-1 at 250 uM by surface plasmon resonance assay
T1 sequence (whole entry): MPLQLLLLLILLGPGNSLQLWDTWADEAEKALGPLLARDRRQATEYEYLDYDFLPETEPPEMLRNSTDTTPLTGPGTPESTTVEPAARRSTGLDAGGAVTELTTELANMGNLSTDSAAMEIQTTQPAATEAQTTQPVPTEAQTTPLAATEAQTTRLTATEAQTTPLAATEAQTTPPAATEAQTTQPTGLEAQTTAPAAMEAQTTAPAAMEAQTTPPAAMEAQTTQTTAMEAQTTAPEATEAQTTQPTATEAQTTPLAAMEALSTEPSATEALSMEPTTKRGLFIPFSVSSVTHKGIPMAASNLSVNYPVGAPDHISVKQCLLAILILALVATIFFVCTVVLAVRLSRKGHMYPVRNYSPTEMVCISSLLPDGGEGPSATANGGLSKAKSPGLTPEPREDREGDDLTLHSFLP

CYP2C9 = CYP2C9 (Homo sapiens, UniProt P11712); test: Inhibition of CYP2C9 at 3 uM; format: ADME
Chain of CYP2C9 (P11712 whole entry): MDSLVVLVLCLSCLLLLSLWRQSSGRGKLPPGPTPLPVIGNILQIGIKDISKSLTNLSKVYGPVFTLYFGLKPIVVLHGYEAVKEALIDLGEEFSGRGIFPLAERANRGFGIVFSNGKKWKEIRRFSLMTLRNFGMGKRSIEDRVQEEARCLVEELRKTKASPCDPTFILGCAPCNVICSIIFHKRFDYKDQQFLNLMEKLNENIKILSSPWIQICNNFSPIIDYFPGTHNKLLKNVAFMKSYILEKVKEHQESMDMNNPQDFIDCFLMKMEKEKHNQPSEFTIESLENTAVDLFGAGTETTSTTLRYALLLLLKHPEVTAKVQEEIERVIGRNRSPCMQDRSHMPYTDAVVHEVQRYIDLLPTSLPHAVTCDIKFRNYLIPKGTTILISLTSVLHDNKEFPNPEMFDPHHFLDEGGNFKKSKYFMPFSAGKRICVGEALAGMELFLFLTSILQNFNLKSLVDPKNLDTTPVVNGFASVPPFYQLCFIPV

[2] = Aqueous solubility of the compound at pH 6.6; format: physicochemical; conditions: aqueous solution
[3] = Oral bioavailability in Sprague-Dawley rat at 10 mg/kg; format: ADME, organism-based; conditions: in vivo
[4] = Clearance in Sprague-Dawley rat at 3 mg/kg, iv and 10 mg/kg, po; format: ADME, organism-based; conditions: in vivo
Rattus norvegicus = test: Dose normalized AUC in Sprague-Dawley rat measured per mg of plasma at 3 mg/kg, iv and 10 mg/kg, po; format: ADME, organism-based; conditions: in vivo
[5] = molecular target: T2, P-selectin glycoprotein ligand 1 (Homo sapiens, UniProt Q14242); test: Inhibition of recombinant PSGL-1 by surface plasmon resonance assay
T2 sequence (Q14242 whole entry): T1 sequence (whole entry)

Mus musculus [6] = test: Reduction of leukocytes rolling flux in acute intravital microscopy model of C57B6 mouse cremasteric postcapillary venules at 50 mg/kg, po after 35 mins relative to control; format: functional; set-up: scale not given: the % may be the effect or the level left
[7] = Aqueous solubility of the compound at pH 1; format: physicochemical; conditions: aqueous solution
[8] = Aqueous solubility of the compound at pH 4.5; format: physicochemical; conditions: aqueous solution
[9] = Aqueous solubility of the compound at pH 7.4; format: physicochemical; conditions: buffer
[10] = Aqueous solubility of the compound at pH 9; format: physicochemical; conditions: buffer
[11] = Half life in Sprague-Dawley rat liver microsomes; format: ADME, Microsome
[12] = Half life in Beagle dog liver microsomes; format: ADME, Canis lupus familiaris, Microsome
[13] = Half life in cynomolgus monkey liver microsomes; format: ADME, Macaca fascicularis, Microsome
[14] = Half life in C57B6 mouse liver microsomes; format: ADME, Microsome
[15] = Half life in human liver microsomes; format: ADME, Microsome
[16] = Oral bioavailability in C57B6 mouse at 10 mg/kg; format: ADME, organism-based; conditions: in vivo
[17] = Clearance in C57B6 mouse at 2 mg/kg, iv and 10 mg/kg, po; format: ADME, organism-based; conditions: in vivo
Mus musculus [18] = test: Dose normalized AUC in C57B6 mouse measured per mg of plasma at 2 mg/kg, iv and 10 mg/kg, po; format: ADME, organism-based; conditions: in vivo
[19] = Oral bioavailability in Beagle dog at 10 mg/kg; format: ADME, organism-based, Canis lupus familiaris; conditions: in vivo
[20] = Clearance in Beagle dog at 2 mg/kg, iv and 10 mg/kg, po; format: ADME, organism-based, Canis lupus familiaris; conditions: in vivo
Canis familiaris = test: Dose normalized AUC in Beagle dog measured per mg of plasma at 2 mg/kg, iv and 10 mg/kg, po; format: ADME, organism-based, Canis lupus familiaris; conditions: in vivo
[21] = Oral bioavailability in cynomolgus monkey at 5 mg/kg; format: ADME, organism-based, Macaca fascicularis; conditions: in vivo
Cynomolgus monkey = test: Dose normalized AUC in cynomolgus monkey measured per mg of plasma at 5 mg/kg, iv and po; format: ADME, organism-based, Macaca fascicularis; set-up: dose 5 mg/kg, route oral; conditions: in vivo

SMILES | inhibition [1] [%] | solubility [2] [µg/mL] | bioavailability [3] [%] | clearance [4] [mL/min/kg] | AUC (Rattus norvegicus) [ng·h/mL] | further results
O=C(O)c1c(O)c(C2(c3ccc(OC(F)(F)F)cc3)CC2)nc2c(C(F)(F)F)cccc12 | 29 | – | – | – | – | –
CCc1cc(C(F)(F)F)c2nc(C3(c4ccc(Cl)cc4)CC3)c(O)c(C(=O)O)c2c1 | < 10 | – | – | – | – | inhibition at 3 µM (CYP2C9): 81%
CC(C)c1cccc2c(C(=O)O)c(O)c(C3(c4ccc(F)cc4)CC3)nc12 | – | 2500 (≈ 6840 µM) | 65 | 8.7 | 1263 | –
Cc1ccc(C2(c3nc4c(C)cc(C)cc4c(C(=O)O)c3O)CC2)cc1 | 11 | – | – | – | – | inhibition at 3 µM (CYP2C9): 55%
Cc1cc(C(F)(F)F)c2nc(C3(c4ccc(Cl)cc4)CC3)c(O)c(C(=O)O)c2c1 | 65 | – | – | – | – | inhibition at 3 µM (CYP2C9): 72%
CCc1cccc2c(C(=O)O)c(O)c(C3(c4ccc(Cl)cc4)CC3)nc12 | – | 140 (≈ 381 µM) | 100 | 2.4 | 13986 | –
O=C(O)c1c(O)c(C2(c3ccc(C(F)(F)F)cc3)CC2)nc2c(C(F)(F)F)cccc12 | 47 | 200 (≈ 453 µM) | 31 | 0.4 | 13800 | –
CC(C)C(c1ccccc1)c1nc2c(C(F)(F)F)cccc2c(C(=O)O)c1O (stereo unspecified) | 58 | 30 (≈ 77 µM) | – | – | – | –
CC(Cc1ccccc1)c1nc2c(C(F)(F)F)cccc2c(C(=O)O)c1O (stereo unspecified) | 49 | 1550 (≈ 4130 µM) | – | – | – | –
O=C(O)c1c(O)c(C2(c3ccsc3)CC2)nc2c(C(F)(F)F)cccc12 | 7 | – | – | – | – | –
O=C(O)c1c(O)c(C2(c3ccc(Br)cc3)CC2)nc2c(C(F)(F)F)cccc12 | 64 | 420 (≈ 929 µM) | – | – | – | –
Cc1ccc2c(C(=O)O)c(O)c(C3(c4ccc(Cl)cc4)CC3)nc2c1C | – | 190 (≈ 517 µM) | 75 | 7 | 1735 | –
CC(C)c1cccc2c(C(=O)O)c(O)c(C3(c4ccccc4)CC3)nc12 | – | 370 (≈ 1070 µM) | 100 | 9 | 2663 | –
CCC(c1ccccc1)c1nc2c(C(F)(F)F)cccc2c(C(=O)O)c1O (stereo unspecified) | 55 | 600 (≈ 1600 µM) | – | – | – | –
CCc1cccc2c(C(=O)O)c(O)c(C3(c4ccc(C(F)(F)F)cc4)CC3)nc12 | – | 250 (≈ 623 µM) | 100 | 9.4 | 2428 | –
CC(C)C(c1ccc(Cl)cc1)c1nc2c(C(F)(F)F)cccc2c(C(=O)O)c1O (stereo unspecified) | < 10 | – | – | – | – | –
O=C(O)c1c(O)c(C2(c3ccccc3Cl)CC2)nc2c(C(F)(F)F)cccc12 | 57 | 760 (≈ 1860 µM) | 19 | 2.4 | 1336 | –
Cc1cc(C(F)(F)F)cc2c(C(=O)O)c(O)c(C3(c4ccc(Cl)cc4)CC3)nc12 | 40 | – | – | – | – | inhibition at 3 µM (CYP2C9): 42%
CCc1cc(C(F)(F)F)c2nc(C3(c4ccccc4)CC3)c(O)c(C(=O)O)c2c1 | 40 | – | – | – | – | inhibition at 3 µM (CYP2C9): 86%
Cc1cc(C(F)(F)F)c2nc(C3(c4ccccc4)CC3)c(O)c(C(=O)O)c2c1 | 40 | – | – | – | – | inhibition at 3 µM (CYP2C9): 87%
CC(=O)N[C@H]1[C@H]([C@H](O)[C@H](O)CO)O[C@@](O[C@H]2[C@@H](O)[C@@H](CO)O[C@@H](O[C@@H]([C@H](O[C@@H]3O[C@@H](C)[C@@H](O)[C@@H](O)[C@@H]3O)[C@H](C=O)NC(C)=O)[C@H](O)CO)[C@@H]2O)(C(=O)O)C[C@@H]1O [SIALYL LEWIS X] | – | – | – | – | – | pIC50 [5]: 1.82
COc1ccc(C2(c3nc4c(C(F)(F)F)cccc4c(C(=O)O)c3O)CC2)cc1 | 26 | – | – | – | – | –
CC(c1ccccc1)c1nc2c(C(F)(F)F)cccc2c(C(=O)O)c1O (stereo unspecified) | 50 | 1550 (≈ 4290 µM) | – | – | – | –

SMILES | inhibition [1] [%] | solubility [2] [µg/mL] | bioavailability [3] [%] | clearance [4] [mL/min/kg] | AUC (Rattus norvegicus) [ng·h/mL] | further results
Cc1cc(C)c2nc(C3(c4ccccc4)CC3)c(O)c(C(=O)O)c2c1 | 20 | – | – | – | – | inhibition at 3 µM (CYP2C9): 54%
Cc1ccc(C2(c3nc4c(C)c(C)ccc4c(C(=O)O)c3O)CC2)cc1 | 24 | – | – | – | – | inhibition at 3 µM (CYP2C9): 47%
O=C(O)c1c(O)c(C2(c3ccccc3)CC2)nc2c(C(O)(C(F)(F)F)C(F)(F)F)cccc12 | – | 1500 (≈ 3180 µM) | 44 | 1 | 5035 | Activity (Mus musculus [6]): 60%
Cc1cc(C)c2nc(C3(c4ccc(Cl)cc4)CC3)c(O)c(C(=O)O)c2c1 | 47 | – | – | – | – | inhibition at 3 µM (CYP2C9): 17%
Cc1cc(C)c2nc(C3(c4ccc(F)cc4)CC3)c(O)c(C(=O)O)c2c1 | < 10 | – | – | – | – | inhibition at 3 µM (CYP2C9): 55%
CC(Cc1nc2c(C(F)(F)F)cccc2c(C(=O)O)c1O)c1ccccc1 (stereo unspecified) | 46 | 680 (≈ 1810 µM) | – | – | – | –
O=C(O)c1c(O)c(C2(c3ccc(F)cc3)CC2)nc2c(C(F)(F)F)cccc12 | 56 | 2900 (≈ 7410 µM) | 39 | 0.5 | 14282 | –
O=C(O)c1c(O)c(C2(c3cccs3)CC2)nc2c(C(F)(F)F)cccc12 | 15 | – | – | – | – | –
O=C(O)c1c(O)c(C2(c3ccc(Cl)cc3)CCC2)nc2c(C(F)(F)F)cccc12 | 0 | – | – | – | – | –
O=C(O)c1c(O)c(C2(c3ccccc3)CC2)nc2c(C(F)(F)F)cccc12 | 44 | 2100 (≈ 5630 µM) | – | – | – | –
CC(C)(c1ccccc1)c1nc2c(C(F)(F)F)cccc2c(C(=O)O)c1O | 59 | 2810 (≈ 7490 µM) | 93 | 3.7 | 1472 | –
O=C(O)c1c(O)c(C2Cc3ccccc32)nc2c(C(F)(F)F)cccc12 (stereo unspecified) | 45 | 800 (≈ 2230 µM) | – | – | – | –
O=C(O)c1c(O)c(Cc2ccccc2)nc2c3c(ccc12)CCCC3 | – | – | – | – | – | pIC50 [5]: 3.38
O=C(O)c1c(O)c(C2Cc3ccccc3C2)nc2c(C(F)(F)F)cccc12 | 35 | 700 (≈ 1880 µM) | 49 | 28 | 340 | –
O=C(O)c1c(O)c(C2(c3ccc(Cl)cc3)CC2)nc2c(C(F)(F)F)cc(Br)cc12 | < 10 | – | – | – | – | inhibition at 3 µM (CYP2C9): 65%
CC(c1ccccc1)c1nc2c3c(ccc2c(C(=O)O)c1O)CCCC3 (stereo unspecified) | – | – | 66 | 9 | 1259 | pIC50 [5]: 3.76
O=C(O)c1c(O)c(Cc2ccc(Cl)cc2)nc2c3c(ccc12)CCCC3 [PSI-697] | – | < 10 | 27 | 11 | 440 | solubility [7]: < 1 µg/mL; solubility [8]: < 1 µg/mL; solubility [9]: 90 µg/mL (≈ 245 µM); solubility [10]: 75 µg/mL (≈ 204 µM); pIC50 [5]: 3.82; half-life [11]: 2 min; half-life [12]: > 60 min; half-life [13]: 44 min; half-life [14]: 14 min; half-life [15]: > 60 min; bioavailability [16]: 100%; clearance [17]: 11.6 mL/min/kg; AUC (Mus musculus [18]): 1510 ng·h/mL; bioavailability [19]: 58%; clearance [20]: 0.9 mL/min/kg; AUC (Canis familiaris): 11666 ng·h/mL; bioavailability [21]: 40%; AUC (Cynomolgus monkey): 1202 ng·h/mL
O=C(O)c1c(O)c(C2(c3cccc(C(F)(F)F)c3)CC2)nc2c(C(F)(F)F)cccc12 | 46 | 1000 (≈ 2270 µM) | – | – | – | –
O=C(O)c1c(O)c(Cc2ccc(Cl)cc2)nc2c(C(F)(F)F)cccc12 | 40 | 440 (≈ 1150 µM) | – | – | – | –
O=C(O)c1c(O)c(C2(c3ccccc3)CC2)nc2c3c(ccc12)CCCC3 | – | – | 45 | 3.9 | 1925 | pIC50 [5]: 3.60
CCc1cc(C(F)(F)F)cc2c(C(=O)O)c(O)c(C3(c4ccc(Cl)cc4)CC3)nc12 | < 10 | – | – | – | – | inhibition at 3 µM (CYP2C9): 43%
O=C(O)c1c(O)c(C2(c3cccc(Cl)c3)CC2)nc2c(C(F)(F)F)cccc12 | 66 | 300 (≈ 736 µM) | – | – | – | –
O=C(O)c1c(O)c(C2(c3ccc(Cl)cc3)CC2)nc2c(C(F)(F)F)cc(Cl)cc12 | < 10 | – | – | – | – | inhibition at 3 µM (CYP2C9): 72%
